Read-outs that look alike come from different tables or passages of the source.
Legend:
NIH3T3v-Src = experiment: Cell proliferation of v-Src-transformed fibroblasts; type: cell-based, mouse; conditions: FIG. 6
Method: FIGS. 6A and 6B show the effects of platinum complexes on cell proliferation and viability. […] Values are the mean and S.D. of 3-4 independent determinations.
(§1) Proliferating cells were counted by phase-contrast microscopy for viable cells (using trypan blue exclusion. TUNEL staining was carried according to supplier's instructions to detect apoptotic cells. Cells (NIH3T3 or NIH3T3/v-Src) were first treated with or without compounds 24-48 h prior to staining.
The effects of platinum complexes on cell proliferation measured by [^3H]-thymidine incorporation were investigated.

[1] = tested on: Src-transformed NIH3T3 fibroblasts; experiment: TUNEL staining for apoptosis, Src-transformed NIH3T3 fibroblasts; type: cell-based, mouse; conditions: 48 h treatment, FIG. 7
Method: FIG. 7 is a photograph showing induction of apoptosis by platinum complexes. Normal NIH3T3 fibroblasts and their v-Src-transformed counterparts were treated with platinum complexes for 48 h and analyzed for evidence of DNA damage using TUNEL staining kit.
as §1
Studies have established a critical role for constitutive Stat3 signaling in the survival of transformed and tumor cells (Catlett-Falcone et al., 1999a; Grandis et al., 2000a; Epling-Burnette et al., 2001; Bowman et al., 2000b; Grandis et al., 2000b; Horiguchi et al., 2002). Effects of the subject platinum compounds on viability and survival of malignant cells were evaluated. To determine whether inhibition of persistently-active Stat3 by the subject compounds results in apoptosis, Src-transformed and normal mouse fibroblasts were treated with the subject platinum compounds and subjected to TUNEL staining for evidence of apoptosis.

Stat3 = experiment: EMSA of nuclear extracts from treated cells with constitutively-activated Stat3; type: cell-based, mouse and human; conditions: Src-transformed fibroblasts and human tumor cells, FIG. 3
Method: FIG. 3 is a photograph showing the evaluation of effects of platinum complexes on Stat3 activation analyzed by EMSA. Nuclear extracts prepared from malignant cells that contain constitutively-activated Stat3 and treated with platinum complexes for the indicated times were analyzed by EMSA using hSIE oligonucleotide probe. Extracts were prepared from v-Src-transformed NIH3T3/v-Src; human breast carcinoma MDA-MB-231; MDA-MB-435; and […]. Position of Stat3:DNA complex in gel is shown.
Nuclear extracts were prepared from cell lines and used for EMSA as previously described (Turkson et al., 1998; Yu et al., 1995; Garcia et al., 1997). In some cases, cells were pre-treated with platinum complexes for the indicated times prior to harvesting. Where cells were stimulated with EGF (6 ng/ml), duration of treatment was 15 min. Nuclear extracts were pre-incubated with compounds for 30 min at room temperature prior to incubation with radiolabeled probe. The ^32P-radiolabeled oligonucleotide probes used are hSIE (high affinity sis-inducible element, m67 variant, 5′-[…]-3′) (SEQ ID NO:1) that binds both Stat1 and Stat3 (Garcia et al., 1997; Wagner et al., 1990), MGFe (mammary gland factor element from the bovine β-casein gene promoter, 5′-[…]-3′) (SEQ ID NO:2) that binds Stat1 and Stat5 (Gouilleux et al., 1995; Seidel et al., 1995), the NF-κB binding oligo (5′-[…]-3′) (SEQ ID NO:3), and the oligonucleotide sequence from the DHFR promoter that binds E2F1.
The effects of platinum complexes on persistent activation of Stat3 in Src-transformed fibroblasts and human tumor cells were investigated. […] These studies were then extended to evaluate the effects of the platinum complexes on Stat3 transcriptional activity.

Stat1:Stat1 = target: T1, Stat1:Stat1 (Mus musculus, UniProt P42225); experiment: EMSA, disruption of Stat1:Stat1 DNA-binding activity in vitro (hSIE probe); type: biochemical; conditions: for Level of DNA-binding activity of Stat1 (EMSA): EGF-stimulated fibroblast nuclear extracts, 30 min preincubation, FIG. 1A
T1 construct: endogenous in cells; host or cells: EGF-stimulated fibroblasts (nuclear extract)
T1 sequence (P42225 2-749 limits assumed): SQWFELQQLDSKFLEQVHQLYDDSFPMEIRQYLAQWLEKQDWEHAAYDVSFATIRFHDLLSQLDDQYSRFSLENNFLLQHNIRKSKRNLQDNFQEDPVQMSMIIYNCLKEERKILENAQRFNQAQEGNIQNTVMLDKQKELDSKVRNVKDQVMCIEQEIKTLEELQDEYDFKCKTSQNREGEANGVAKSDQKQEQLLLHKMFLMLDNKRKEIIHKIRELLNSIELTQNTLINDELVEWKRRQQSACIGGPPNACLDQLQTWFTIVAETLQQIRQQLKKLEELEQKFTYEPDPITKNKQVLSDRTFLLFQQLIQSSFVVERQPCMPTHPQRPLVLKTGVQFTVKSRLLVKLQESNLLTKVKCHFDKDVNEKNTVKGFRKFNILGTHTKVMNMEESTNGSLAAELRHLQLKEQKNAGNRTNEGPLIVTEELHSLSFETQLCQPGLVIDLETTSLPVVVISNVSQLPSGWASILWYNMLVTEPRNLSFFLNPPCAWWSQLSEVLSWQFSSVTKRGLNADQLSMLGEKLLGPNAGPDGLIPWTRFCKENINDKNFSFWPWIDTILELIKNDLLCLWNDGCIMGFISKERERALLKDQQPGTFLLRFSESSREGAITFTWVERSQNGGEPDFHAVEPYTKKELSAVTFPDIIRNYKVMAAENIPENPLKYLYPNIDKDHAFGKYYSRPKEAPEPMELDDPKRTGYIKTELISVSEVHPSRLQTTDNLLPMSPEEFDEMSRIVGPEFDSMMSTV
Method: (§2) FIGS. 1A-D are photographs showing EMSA analyses of DNA-binding activities and effects of platinum complexes. Nuclear extracts containing activated Stat1, Stat3 and Stat5 are treated with the indicated concentrations of platinum complex ISSCPA-1, ISSCPA-3, ISSCPA-7, or PtCl4 for 30 min at room temperature prior to incubation with radiolabeled oligonucleotide probes. […] Positions of complexes of DNA with STAT, E2F1 or NFκB (p65, p50) in gel are labeled. Control lanes represent nuclear extracts that are not pre-incubated with platinum complexes.
(§3) Nuclear extracts were prepared from cell lines and used for EMSA as previously described (Turkson et al., 1998; Yu et al., 1995; Garcia et al., 1997). In some cases, cells were pre-treated with platinum complexes for the indicated times prior to harvesting. Where cells were stimulated with EGF (6 ng/ml), duration of treatment was 15 min. Nuclear extracts were pre-incubated with compounds for 30 min at room temperature prior to incubation with radiolabeled probe. The ^32P-radiolabeled oligonucleotide probes used are hSIE (high affinity sis-inducible element, m67 variant, 5′-[…]-3′) (SEQ ID NO:1) that binds both Stat1 and Stat3 (Garcia et al., 1997; Wagner et al., 1990), MGFe (mammary gland factor element from the bovine β-casein gene promoter, 5′-AGATTTCTAGGAATTCAA-3′) (SEQ ID NO:2) that binds Stat1 and Stat5 (Gouilleux et al., 1995; Seidel et al., 1995), the NF-κB binding oligo (5′-[…]-3′) (SEQ ID NO:3), and the oligonucleotide sequence from the DHFR promoter that binds E2F1.
(§4) Platinum compounds were evaluated for inhibitory activity against STAT DNA-binding in vitro.

Stat1:Stat3 = target: T2, Stat1:Stat3 (Mus musculus, UniProt P42225+P42227); experiment: EMSA, disruption of Stat1:Stat3 DNA-binding activity in vitro (hSIE probe); type: biochemical
T2 construct: endogenous in cells; host or cells: EGF-stimulated fibroblasts (nuclear extract)
Method: as §2, §3, §4

T2 sequence (P42227 2-770 limits assumed, one chain of several): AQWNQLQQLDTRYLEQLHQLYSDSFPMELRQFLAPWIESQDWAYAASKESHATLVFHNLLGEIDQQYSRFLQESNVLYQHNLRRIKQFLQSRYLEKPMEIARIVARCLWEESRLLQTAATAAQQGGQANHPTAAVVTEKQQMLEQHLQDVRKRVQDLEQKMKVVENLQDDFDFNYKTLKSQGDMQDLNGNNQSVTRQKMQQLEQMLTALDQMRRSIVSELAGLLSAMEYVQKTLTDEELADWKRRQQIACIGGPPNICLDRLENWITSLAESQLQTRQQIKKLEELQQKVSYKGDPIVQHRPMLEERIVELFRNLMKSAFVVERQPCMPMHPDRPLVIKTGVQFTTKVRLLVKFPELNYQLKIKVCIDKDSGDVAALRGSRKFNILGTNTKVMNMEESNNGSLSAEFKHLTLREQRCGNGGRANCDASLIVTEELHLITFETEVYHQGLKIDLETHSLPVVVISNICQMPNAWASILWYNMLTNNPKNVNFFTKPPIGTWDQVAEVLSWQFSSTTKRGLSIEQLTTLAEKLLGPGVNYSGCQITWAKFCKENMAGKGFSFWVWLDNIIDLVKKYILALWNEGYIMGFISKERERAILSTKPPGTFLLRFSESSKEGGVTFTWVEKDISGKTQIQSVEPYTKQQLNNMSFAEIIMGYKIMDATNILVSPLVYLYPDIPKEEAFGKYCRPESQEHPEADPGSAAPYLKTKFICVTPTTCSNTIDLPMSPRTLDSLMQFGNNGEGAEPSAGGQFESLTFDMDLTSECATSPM

[NH2][Pt]([NH2])([Cl])([Cl])([Cl])[N+](=O)[O-] [ISS CPA-7]
Growth of Src-transformed mouse fibroblasts ([3H]-thymidine incorporation) (NIH3T3v-Src): strongly inhibited
Apoptosis (TUNEL staining) in Src-transformed NIH3T3 fibroblasts [1]: strong apoptosis
Inhibition of constitutive Stat3 activation in treated cells (EMSA of nuclear extracts) (Stat3): strong inhibition
Level of DNA-binding activity of Stat1 (EMSA) (Stat1:Stat1; hSIE probe): dose-dependent reduction
IC50 (Stat1:Stat1; nuclear extracts pre-incubated 30 min at room temperature, hSIE probe, read-out: IC50 for disruption of STAT DNA-binding activity in vitro, Stat1:Stat1): 4 µM
IC50 (Stat1:Stat3; nuclear extracts pre-incubated 30 min at room temperature, hSIE probe, read-out: IC50 for disruption of STAT DNA-binding activity in vitro, Stat1:Stat3): 3.5 µM

O=[N+]([O-])[Pt]1([Cl])([Cl])([Cl])[NH]CC[NH]1 [ISS CPA-1]
Growth of Src-transformed mouse fibroblasts ([3H]-thymidine incorporation) (NIH3T3v-Src): strongly inhibited
Apoptosis (TUNEL staining) in Src-transformed NIH3T3 fibroblasts [1]: strong apoptosis
Inhibition of constitutive Stat3 activation in treated cells (EMSA of nuclear extracts) (Stat3): strong inhibition
IC50 (Stat1:Stat1): 20 µM
Level of DNA-binding activity of Stat1 (EMSA) (Stat1:Stat1; hSIE probe): dose-dependent reduction
IC50 (Stat1:Stat3): 9.3 µM

Source: patent US7763585B2, “Methods for inhibiting tumor cell proliferation” (priority 2003, dated 2010)
